Results as given in patent EP0643699B1, “6-(2-HYDROXYETHYLAMINOALKYL)-5,11-DIOXO-5,6-DIHYDRO-11H- INDENO[1,2-C]ISOQUINOLINES AND THEIR USE AS ANTINEOPLASTIC AGENTS” (priority 1991, dated 1993).
Marks after values point to notes of the source that are not given here.

Assays:
[1] = tested on: L1210 leukemia cells; assay: Cytotoxicity: incorporation of [14C]amino-acid mixture into trichloroacetic acid-insoluble fraction of cells; assay type: cell-based, DBA2 mice; settings: Mus musculus; Tumor L1210; Precursor [U-14C]Amino-acid mixture
Text: (§1) The antineoplastic activity of the compounds of the invention has been investigated testing the compounds of the chemical group "in vivo" against experimental rodent tumors such as the solid form of Ehrlich tumour (STE, originally mammary adenocarcinoma), tumor HK (also transplantable originally mammary adenocarcinoma), Krebs' ascites tumour (Kr2), S37 ascites sarcoma, Nemeth-Keller lymphoma (NK), all maintained in mice H, Gardner lymphosarcoma (LsG, maintained in mice C3H), P388 and/or L1210 leukemia (maintained in DBA2 mice), B16 metastasizing melanocarcinoma (maintained in C57B1/6 mice) and Yoshida ascites reticulosarcoma (Y, maintained in Wistar rats) in experiments according to Jelinek, V. [Neoplasma 12, 469 (1965); ibid 7, 146 (1960)] and in "in vitro" experiments using radioactive precursors of nucleic acids and proteins according to Miko, M. et al. [Cancer Res 39, 4242 (1979); Neoplasma 26, 449 (1979); ibid 16, 161 (1969)] with minor modifications [Mattern, J.: Studies on the Drug Sensitivity of Short Term Cultured Tumour Cell Suspensions. In "Human Tumours in Short Term Culture" (Dendy, P.P. ed.), p.301, Academic Press 1976]. The Cox's proportional-hazards model was used for survival evaluation and optimal dose calculation according to Carter, V.H. et al. [cf Cancer Res. 42, 2963 (1982)]. […]

[2] = tested on: Sa37 sarcoma; assay: Antitumour activity in S37 ascites sarcoma bearing mice (tumour weight, total ascitocrit, survival); assay type: in vivo, mice H
Text: (§2) The antineoplastic activity of the compounds of the invention has been investigated testing the compounds of the chemical group "in vivo" against experimental rodent tumors such as the solid form of Ehrlich tumour (STE, originally mammary adenocarcinoma), tumor HK (also transplantable originally mammary adenocarcinoma), Krebs' ascites tumour (Kr2), S37 ascites sarcoma, Nemeth-Keller lymphoma (NK), all maintained in mice H, Gardner lymphosarcoma (LsG, maintained in mice C3H), P388 and/or L1210 leukemia (maintained in DBA2 mice), B16 metastasizing melanocarcinoma (maintained in C57B1/6 mice) and Yoshida ascites reticulosarcoma (Y, maintained in Wistar rats) in experiments according to Jelinek, V. [Neoplasma 12, 469 (1965); ibid 7, 146 (1960)] and in "in vitro" experiments using radioactive precursors of nucleic acids and proteins according to Miko, M. et al. [Cancer Res 39, 4242 (1979); Neoplasma 26, 449 (1979); ibid 16, 161 (1969)] with minor modifications [Mattern, J.: Studies on the Drug Sensitivity of Short Term Cultured Tumour Cell Suspensions. In "Human Tumours in Short Term Culture" (Dendy, P.P. ed.), p.301, Academic Press 1976]. The Cox's proportional-hazards model was used for survival evaluation and optimal dose calculation according to Carter, V.H. et al. [cf Cancer Res. 42, 2963 (1982)].
Eighty female mice H weighing approximately 20 g were divided into four groups: one control group and three experimental groups of 20 animal each. A lethal dose of the Sa37 sarcoma ascitic fluid was implanted intraperitoneally to all the animals. The animals of test groups were treated using the compound suspended in water. The suspension contained the substance in such a concentration that dose 0.6, 0.4 and/or 0.2ml of the suspension p.o. was equal to dose 240, 160 and/or 80 mg/kg p.o., respectively. The drug was administered to the experimental animals once, a day after tumour transplantation. On the tenth day after the tumour transplantation, half of the animals in each group were killed by ether anaesthesia, ascites were emptied after laparotomia and the tumour weight was assessed in all animals from the weight difference before and after laparotomia and ascites removing. In ascites fluid the volume of tumour cell fraction was determined. The remaining animals were left to monitor the time of death and survival time was followed. […] It was also observed that the treated animals survived longer than untreated control animals. […] The results of the experiment are summarized in the following table: Antitumour activity of 6-[2-(2-hydroxyethyl)aminoethyl]5,11-dioxo-5,6-dihydro-11H-indeno[1,2-c]isoquinoline (the substance I, X=2) in S37 sarcoma bearing mice.
In an analogous experiment carried out on the animals with implanted Sa37 sarcoma the substance I (X=2) was administered in seven daily doses, and the substance I (X=3) in four days. The results of the experiment are summarized in the following table: Antitumour activity of 6-[2-(2-hydroxyethyl)aminoethyl]5,11-dioxo-5,6-dihydro-11H-indeno[1,2-c]isoquinoline (the substance I, X=2) and 6-[3-(2-hydroxyethyl)aminopropyl]5,11-dioxo-5,6-dihydro-11H-indeno[1,2-c]isoquinoline (the substance I, X=3) in S37 bearing mice.
In an experiment carried out on the animals with implanted Sa37 sarcoma the substance I (X=0) was administered in eight daily doses (analogously as in example 6).

[3] = tested on: L1210/MX; assay: Cytotoxicity: incorporation of [14C]amino-acid mixture, variant resistant to mitoxantron; assay type: cell-based; settings: Mus musculus; Tumor L1210/MX; Precursor [U-14C]Amino-acid mixture
Text: as §1

[4] = tested on: Ehrlich tumour; assay: Antitumour activity against solid form of Ehrlich tumour in mice (tumour weight, survival); assay type: in vivo, mice H; settings: the fifth day after tumour transplantation; for Tumour weight (T/C, %): weighed on the fourteenth day
Text: as §2
Sixty female mice H weighing approximately 20 g were divided into three groups: one control group and two experimental groups of 20 animal each. A lethal dose of the 40 Ehrlich tumour homogenate was implanted subcutaneously to all the animals. The animals of test groups were treated using the compounds suspended in water. […] On the fourteenth day after the tumour transplantation, half of the animals in each group were killed by ether anaesthesia, tumours were removed and weighed. The remaining animals were left to monitor the time of death and survival time was followed. […] It was also observed that the treated animals survived longer than untreated control animals.

[5] = tested on: Yoshida reticulosarcoma; assay: Survival of rats bearing Yoshida ascites reticulosarcoma; assay type: in vivo, Wistar rats; settings: T/C
Text: as §2
Seventy infantile Vistar female rats weighing 63.0-64.8 g were divided into seven groups: one control group and six experimental groups of 10 animal each. A lethal dose of the Yoshida reticulosarcoma ascitic fluid was implanted intraperitoneally to all the animals. The animals of test groups were treated using the compound suspended in water. The suspension contained the substance in such a concentration that dose 0.6, 0.4 and/or 0.2 ml of the suspension was equal to dose 200, 100 and/or 50 mg/kg p.o., or 40, 20 and/or 10 mg/kg s.c., respectively. Doses of the drug were administered to the experimental animals once a day, for five consecutive days, starting on the first day after tumour transplantation. In all animals survival was followed. It was observed that the treated animals survived longer than untreated control animals. […] The results of the experiment are summarized in the following table and shown in the graph on the Fig. 1.

[6] = 10 mg/kg p.o., seven daily doses
[7] = 20 mg/kg p.o., seven daily doses
[8] = 30 mg/kg p.o., seven daily doses
[9] = 80 mg/kg p.o. once, a day after tumour transplantation, assessed on the tenth day
[10] = 160 mg/kg p.o. once, a day after tumour transplantation, assessed on the tenth day
[11] = 240 mg/kg p.o. once, a day after tumour transplantation, assessed on the tenth day

O=C1c2ccccc2-c2c1c1ccccc1c(=O)n2CCNCCO [I (X=2), 6-[2-(2-hydroxyethyl)aminoethyl]-5,11-dioxo-5,6-dihydro-11H-indeno[1,2-c]isoquinoline]
IC50 [1]: 78 µM | Survival time (T/C, %) [2, 6]: 129% | Total ascitocrit (T/C, %) [2, 6]: 73^b) % | Tumour weight (T/C, %) [2, 6]: 66^b) % | Survival time (T/C, %) [2, 7]: 129^a) % | Total ascitocrit (T/C, %) [2, 7]: 73^a) % | Tumour weight (T/C, %) [2, 7]: 64^b) % | Survival time (T/C, %) [2, 8]: 86% | Total ascitocrit (T/C, %) [2, 8]: 40^b) % | Tumour weight (T/C, %) [2, 8]: 32^b) % | Survival time (T/C, %) ([2]; 80 mg/kg p.o. once, a day after tumour transplantation): 107% | Total ascitocrit (T/C, %) [2, 9]: 64^c) % | Tumour weight (T/C, %) [2, 9]: 61^c) % | Survival time (T/C, %) ([2]; 160 mg/kg p.o. once, a day after tumour transplantation): 111% | Total ascitocrit (T/C, %) [2, 10]: 65^c) % | Tumour weight (T/C, %) [2, 10]: 59^c) % | Survival time (T/C, %) ([2]; 240 mg/kg p.o. once, a day after tumour transplantation): 119^b) % | Total ascitocrit (T/C, %) [2, 11]: 47^c) % | Tumour weight (T/C, %) [2, 11]: 42^c) % | IC50 [3]: 119 µM | Survival time (T/C, %) ([4]; 200 mg/kg p.o. once): 111% | Tumour weight (T/C, %) ([4]; 200 mg/kg p.o. once): 79^a) % | Survival time (T/C, %) ([4]; 400 mg/kg p.o. once): 152^a) % | Tumour weight (T/C, %) ([4]; 400 mg/kg p.o. once): 31^b) % | Period of survival (% of control) ([5]; p.o. 50 mg/kg once a day for five consecutive days): 132% | Period of survival (% of control) ([5]; p.o. 100 mg/kg once a day for five consecutive days): 230^b,^e) % | Period of survival (% of control) ([5]; p.o. 200 mg/kg once a day for five consecutive days): 219^b,^d) % | Period of survival (% of control) ([5]; s.c. 10 mg/kg once a day for five consecutive days): 203 ^b) % | Period of survival (% of control) ([5]; s.c. 20 mg/kg once a day for five consecutive days): 139^a) % | Period of survival (% of control) ([5]; s.c. 40 mg/kg once a day for five consecutive days): 86%
